# In patent publication US20260373497A1, “MOLECULAR MACHINES STIMULATE INTERCELLULAR CALCIUM WAVES AND CAUSE MUSCLE CONTRACTION” (William Marsh Rice University, priority 2022, published 2026):
# Entries after “also recorded” stand apart in the source; their conditions may differ.
# Legend:
# HEK293 cells [1] = assay: Pharmacological blocking of MM 1-induced calcium responses; format: cell-based; settings: MM 1 + light in calcium-free PBS
# Method: FIGS. 14A-14J—Mechanistic study of MM-induced ICW. (a) Schematic of possible mechanisms by which calcium can enter the cytoplasm. Prepared with Biorender.com. (b) Confocal microscope images of HEK293 cells treated with MM 1, MitoTracker Green, ER Tracker Red, and CellMask Deep Red. Scale bars are both 20 μm and apply to the images in the same row. (c-h) Calcium waves elicited by MM 1-treated cells (c) in calcium-free PBS, (d) in RR (1 μM), (e) in Gd^3+ (50 μM), (f) after treatment of cells with Th (1 μM), (g) in Ry (100 μM), (h) in XeC (25 μM), (i) in U-73 (10 μM), (j) after pre-treatment of cells with Cyto D (2 μM). The solid line represents the calcium profiles averaged from six independent cells. The shaded region represents the standard error of the mean (n=6). Stimuli were presented after 30 s of imaging in each case, and the time of stimulus presentation is indicated by the vertical cyan line. […] All stimuli were delivered with a pulse width of 250 ms to a circular area of diameter 5 μm at a power ranging from 3.2×10^2 W cm^−2 to 5.1×10^2 W cm^−2. For all plots, the cyan line indicates the time of stimulus presentation. Controls and experimental groups were imaged and stimulated on the same day using the same conditions and with the same batch of cells. Error bars in the bar graphs represent the standard deviation of the mean of n=3 experiments (at least 6 stimulated cells per experiment). Statistical analyses were performed using a one-tailed Welch's t-test. * P-value<0.05, ** P-value<0.01, *** P-value<0.001, **** P-value<0.0001.
# Imaging was conducted in imaging extracellular buffer (iECB; 119 mM NaCl, 5 mM KCl, 10 mM HEPES, 2 mM CaCl2, 1 mM MgCl2 (pH 7.2); 320 mOsm). Imaging in calcium-free medium was conducted in phosphate-buffered saline. Cells were prepared for imaging by seeding a 35 mm Ibidi imaging dish with ~50,000 cells in 1 mL of DMEM, and grown at 37 °C, 5% CO2 for 2 days. Prior to imaging, cells were incubated with dyes and/or molecules resuspended in complete growth medium at the appropriate concentration (MM 1 (8 μM), MM 2 (8 μM), MM 3 (24 μM), MM 4 (8 μM), Fluo-4 (2 μM)). MM and Fluo-4 were loaded into cells for 45 min. Cells treated with thapsigargin were exposed for 30 min after MM and Fluo-4 loading. Cells treated with organelle-targeting dyes were exposed for 5 min after MM loading. Ruthenium red and Gd^3+ were included in the imaging medium during stimulation and were associated with cells for 10 min prior to imaging. At the end of incubation, this medium was replaced with the iECB. Unless otherwise specified, all experiments were replicated in triplicate.
# Pharmacological Experiments: In pharmacological blocking experiments, cells were loaded with MM and Fluo-4 as previously described. Typical imaging experiments in previously described extracellular buffer were then conducted as a positive control. Then, the imaging buffer was replaced, and the cells were treated as required for each experiment. After a brief recovery period, the cells were imaged again, and six different cells were stimulated. Experiments in calcium-free imaging buffer used phosphate buffered saline. Thapsigargin (Th: 1 μM) and Cytochalasin D (Cyto D; 2 μM) were incubated with cells in complete growth medium for 1 h (Th) or 2 h (Cyto D) before imaging. Ruthenium red (RR; 1 μM), gadolinium (Gd; 50 μM), ryanodine (Ry; 100 μM), xestospongin C (XeC; […]), and U-73122 (U-73; 10 μM) were administered directly into the imaging medium. Cells were incubated in the medium for ~5 min prior to imaging. Traces presented are representative results across at least six cells from single experiments, while bar graphs represent the average results across at least three distinct experiments.
# HEK293 cells [2] = assay: Assessment of stimulation toxicity (apoptosis, necrosis, PI uptake); format: cell-based
# Excerpt: Assessment of Stimulation Toxicity: The purpose was to use MM to interact with cell signaling. However, several previous studies by the group have explored the same or similar molecules for inducing cell permeabilization and death (Santos et al., 2022; Alaya-Orozco et al., 2020; Gunasekera et al., 2020). These studies used minutes-long light doses rather than the millisecond-scale doses employed in this work. Nevertheless, assessing the effects of MM stimulation on cell viability remains imperative.
# Potentially toxic effects of MM stimulation on cells were assessed in several ways. First, qualitative analysis of stimulated cells can be used to assess toxicity. For these experiments, HEK293 cells were treated with MM 1 and prepared as was typical for stimulation experiments.
# Second, once a suitable window of stimulation power had been identified, the effects of stimulation on cells were compared to healthy cells and several positive controls representing mechanisms of cell death. For these experiments, cells were loaded with Fluo-4, CellMask cell membrane labeling dye, and MM 1 and were imaged in the presence of cell-impermeant viability dye propidium iodide (PI; 1 μg mL^−1). The onset of apoptotic cell death in imaged colonies was confirmed by the observation of pyknosis (cell shrinkage) (Hajnoczky et al., 2003), the uptake of small amounts of PI, and the enhanced fluorescence of Fluo-4 in the colony (FIG. 8A).
# Finally, to account for potential aftereffects of stimulation, isolated HEK293 colonies were grew in a grid pattern by photolithographically patterning polydimethylsiloxane onto Ibidi imaging dishes. Colonies were seeded with 25,000 cells cm^−2. Two days after seeding, cells were treated with MM 1 and Fluo-4 using typical protocols (see Example 6), and 10 selected cells were stimulated in selected colonies. After 24 h, these colonies were imaged again in the presence of 1 μg mL^−1 PI to observe any effects of MM stimulation on growth, cell stress, or viability.
# C2C12 myoblasts = assay: ROS generation (CellROX green) in C2C12 myoblasts; format: cell-based, mouse; settings: MM 1 + light
# Method: Additionally, to further confirm that the cellular calcium release is not the result of a photodynamic effect caused by reactive oxygen species (ROS) generation, ROS generation was measured from each MM using the ROS sensitive dye CellROX green. CellROX fluoresces when oxidized by ROS in living cells and can be used to measure general oxidative stress in cells due to ROS generation. […] To confirm that the ROS generated by MM 1 was not causing intracellular calcium release, cells were treated with a combination of thiourea (TU, 50 mM) and [COMPOUND LEFT OUT] (SA, 1.25 mM) to scavenge the ROS that were produced. […] If ROS generation by MM 1 was the cause of calcium release, then less calcium release would be expected with treatment of ROS scavengers.
structure (smiles),measurement,setting,value
CC1Cc2ccc3ccccc3c2C1=C1c2ccccc2Sc2cc(NCCN(C)C)ccc21 (centres unmarked) [MM 1],Calcium response amplitude in absence of extracellular calcium,HEK293 cells [1],showed no differences in response amplitude compared to a positive control in calcium-containing medium
same,Cell toxicity after typical stimulation,"HEK293 cells [2]; MM 1 8 μM, 3.2×10^2 W cm^−2 for 250 ms",cells recovered from stimulation and showed no signs of apoptosis or necrosis
same,Cell toxicity at reduced light dose,"HEK293 cells [2]; MM 1, 3.2×10^2 W cm^−2 for 1 s, 30 min","strong calcium responses from cells without observable toxicity; also recorded: the calcium signal has returned to homeostatic levels, and the stimulated cell and surrounding cells display no apparent damage"
same,Cell toxicity at high light dose,"HEK293 cells [2]; MM 1, 6.4×10^2 W cm^−2 for 4 s","membrane blebbing and calcium accumulation over a 30 min period, indicating cell death; also recorded: membrane blebbing and runaway calcium accumulation; also recorded: the calcium signal has not returned to homeostasis, and membrane blebbing is apparent"
same,PI uptake of stimulated colonies 24 h after stimulation,"HEK293 cells [2]; MM 1, 10 cells stimulated per colony, 1 μg mL^−1 PI",indistinguishable from untreated colonies
same,Necrotic cell death under UV/DAPI-filter LED,"HEK293 cells [2]; MM 1, 395/25 nm, 166 mW cm^−2, 5 min",Necrotic cell death was observed
same,ROS generation,C2C12 myoblasts; CellROX green,generated more ROS than the DMSO negative control but less ROS than positive controls
same,ROS generation with scavenger combination,C2C12 myoblasts; with thiourea-containing scavenger combination (1× and 0.2×),decrease in ROS generation
